Assays:
human GnRHr = human GnRHr (Homo sapiens (Human), UniProt P30968); assay: Human GnRHr (GnRH receptor) activity assay, Fluo-4 calcium signal in Human GnRHr/CHO stably transfected cell lines; assay type: cell-based; conditions: Human GnRHr/CHO cells, GnRH polypeptide stimulant
Description: Test Example 1. Human GnRHr (GnRH Receptor) Activity Assay of the Present Compounds.
In vitro GnRHr protein activity was tested by the following methods.
This assay was used to determine the inhibition effect of the present compound on the activity of human GnRHr protein expressed by Human GnRHr/CHO stably transfected cell lines.
A mammalian expression vector containing the human GnRHr gene was transferred into CHO cells by adding Lipofectamine® LTX reagent containing Plus™. Antibiotics were added the next day for screening to pick out the monoclonal cell lines.
(§1) The Human GnRHr/CHO stably transfected cell lines were inoculated in 96-well plates with an inoculation density of 25,000 cells/well. The culture medium was removed the next day, and loading buffer containing Fluo-4 dye was added to the plate (100 μL/well) and incubated for 30 minutes at 37° C. The plate was moved to room temperature and equilibrated for 10 minutes. Each compound was diluted with DMSO to seven concentration gradients of 100 μM, 10 μM, 1 μM, 0.1 μM, 0.01 μM, 0.001 μM, 0.0001 μM. Then, 1 μl of each gradient was added to each well and incubated for 10 minutes at room temperature. After automated addition of 50 μL of GnRH polypeptide stimulant solution, the value was immediately detected at 494/516 nM by a microplate reader (flexstation 3). IC50 values of the compounds were calculated by software from different fluorescence signals at various corresponding concentrations.
The inhibitory activity of the present compounds on human GnRHr was determined by the above assay, and IC50 values are shown in Table 1.

[1] = Rat pharmacokinetics assay; assay type: in vivo, Sprague-Dawley (SD) rats; conditions: both sexes, Sprague-Dawley, plasma, oral 10 mg/kg; for Vd/F: read-out: Apparent volume of distribution Vz/F; for AUC: read-out: Area under curve AUC; for CL/F: read-out: Clearance rate CL/F; for half-life: read-out: Half-life T1/2 (converted); for Cmax: read-out: Plasma concentration Cmax; for MRT: read-out: Residence time MRT
Description: Test Example 4. Rat pharmacokinetics assay of the compounds of Example 2, Example 3, Example 5, Example 9, Example 10, Example 11, and Example 13 of the present invention.
Sprague-Dawley (SD) rats were used as test animals. The plasma concentrations at various times were determined by LC/MS/MS after intragastric administration of compounds of Example 2, Example 3, Example 5, Example 9, Example 10, Example 11, and Example 13, and intravenous administration of the compound of Example 11 to the rats. The pharmacokinetic behavior of the present compounds in rats was studied, and the pharmacokinetic features were evaluated.
Thirty-two (32) healthy adult SD rats (half female and half male) were evenly designated into 8 groups (4 for each group). The animals were purchased from Shanghai Super B&K Laboratory Animal Corp. Ltd (laboratory animal production Certificate No. SCXK (HU)2008-0016).
An appropriate amount of sample was weighed, and added with 0.5% CMC-Na to form a 1 mg/ml suspension upon ultrasonic treatment.
Appropriate amounts of drugs were weighed, and dissolved with 0.5 ml DMSO and 0.5 ml of Tween 80. Saline solution was added to the final volume.
Thirty-two (32) SD rats (half female and half male) were evenly designated into 8 groups (4 for each group), and administered by oral gavage or intravenous injection (i.v.) (oral gavage at a dosage of 10 mg/kg or 30 mg/kg, and i.v. at a dosage of 5.0 mg/kg), respectively, at a volume of 10 ml/kg after fasting overnight.
0.1 ml of blood was sampled before, and 0.5, 1, 2, 4, 6, 8, 11, and 24 hours after administration, collected in a heparinized test tube, and centrifuged at 3500 rpm for 10 minutes to separate the plasma, which was stored at −20° C. The animals were allowed access to feed 2 hours after administration.
The content of the test compound in the plasma of rats after administration of the compound by oral gavage was determined by LC/MS/MS.

rabbit GnRHr = rabbit GnRHr (Oryctolagus cuniculus, UniProt Q5U7L3); assay: Rabbit GnRHr inhibitory activity assay, rabbit GnRHr/CHO stably transfected cell lines; assay type: cell-based; conditions: rabbit GnRHr/CHO cells, GnRH polypeptide stimulant, Fluo-4
Description: Test Example 3. Rabbit GnRHr Inhibitory Activity Assay of the Present Compounds
This assay was used to determine the inhibition effect of the present compounds on the activity of rabbit GnRHr protein expressed by rabbit GnRHr/CHO stably transfected cell lines.
A mammalian expression vector containing the rabbit GnRHr gene was transferred into CHO cells by adding Lipofectamine® LTX reagent containing Plus™. Antibiotics were added the next day for screening to pick out the monoclonal cell lines.
as §1, with “rabbit” for “Human”, “494/516n M” for “494/516 nM”
The inhibitory activity of the present compounds on rabbit GnRHr was determined by the above assay, and IC50 values are shown in Table 1.

Sequence of human GnRHr (P30968 whole entry): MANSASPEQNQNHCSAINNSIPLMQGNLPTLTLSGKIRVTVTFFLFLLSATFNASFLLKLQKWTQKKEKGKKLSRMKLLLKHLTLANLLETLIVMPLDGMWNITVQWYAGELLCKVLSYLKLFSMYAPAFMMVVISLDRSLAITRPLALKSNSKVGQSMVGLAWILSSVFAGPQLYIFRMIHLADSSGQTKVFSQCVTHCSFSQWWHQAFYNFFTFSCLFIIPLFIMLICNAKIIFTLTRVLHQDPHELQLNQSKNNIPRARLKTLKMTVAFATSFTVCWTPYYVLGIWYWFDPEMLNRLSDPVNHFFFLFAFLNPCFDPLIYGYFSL
Sequence of rabbit GnRHr (Q5U7L3 1-328): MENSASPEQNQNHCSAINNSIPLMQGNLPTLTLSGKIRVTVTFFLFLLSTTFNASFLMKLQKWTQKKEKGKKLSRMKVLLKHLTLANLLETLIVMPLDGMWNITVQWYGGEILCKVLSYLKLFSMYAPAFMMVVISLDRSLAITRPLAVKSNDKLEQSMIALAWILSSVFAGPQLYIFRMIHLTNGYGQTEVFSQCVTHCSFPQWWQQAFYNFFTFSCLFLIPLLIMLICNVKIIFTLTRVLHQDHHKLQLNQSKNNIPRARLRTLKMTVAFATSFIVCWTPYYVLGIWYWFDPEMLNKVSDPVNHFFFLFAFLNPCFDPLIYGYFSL

Structure (SMILES) | IC50 (human GnRHr) [nM] | Vd/F [1] [L/kg] | AUC [1] [ng·h/mL] | CL/F [1] [mL/min/kg] | half-life [1] [h] | Cmax [1] [ng/mL] | MRT [1] [h] | IC50 (rabbit GnRHr) [nM]
CCNC(=O)Nc1ccc(-n2nc3c(c2CN(C)C)c(=O)n(-c2cccc(OC)c2F)c(=O)n3Cc2c(F)cccc2C(F)(F)F)cc1 [Example 6, 1-(4-(3-((dimethylamino)methyl)-5-(2-fluoro-3-methoxyphenyl)-7-(2-fluoro-6-(trifluoromethyl)benzyl)-4,6-dioxo-4,5,6,7-tetrahydro-2H-pyrazolo[3,4-d]pyrimidin-2-yl)phenyl)-3-ethylurea] | 0.96 |  |  |  |  |  |  | 
CONC(=O)Nc1ccc(-n2nc3c(c2CN(C)C)c(=O)n(-c2cccc(OC)c2F)c(=O)n3Cc2c(F)cccc2C(F)(F)F)cc1 [Example 7, 1-(4-(3-((dimethylamino)methyl)-5-(2-fluoro-3-methoxyphenyl)-7-(2-fluoro-6-(trifluoromethyl)benzyl)-4,6-dioxo-4,5,6,7-tetrahydro-2H-pyrazolo[3,4-d]pyrimidin-2-yl)phenyl)-3-methoxyurea] | 0.49 |  |  |  |  |  |  | 
CONC(=O)Nc1ccc(-c2cn3c(c2CN(C)C)c(=O)n(-c2cccc(OC)c2F)c(=O)n3Cc2c(F)cccc2F)cc1 [Example 15, 1-(4-(1-(2,6-difluorobenzyl)-5-((dimethylamino)methyl)-3-(2-fluoro-3-methoxyphenyl)-2,4-dioxo-1,2,3,4-tetrahydropyrrolo[2,1-f][1,2,4]triazin-6-yl)phenyl)-3-methoxyurea] | 0.43 |  |  |  |  |  |  | 
CCNC(=O)Nc1ccc(-n2nc3c(c2CN(C)C)c(=O)n(-c2ccc(OC)nn2)c(=O)n3Cc2c(F)cccc2F)cc1 [Example 10, 1-(4-(7-(2,6-difluorobenzyl)-3-((dimethylamino)methyl)-5-(6-methoxypyridazin-3-yl)-4,6-dioxo-4,5,6,7-tetrahydro-2H-pyrazolo[3,4-d]pyrimidin-2-yl)phenyl)-3-ethylurea] | 0.66 | 30.3 ± 14.4 | 1240 ± 593 | 168 ± 95 | 2.29 ± 0.84 | 598 ± 431 | 2.96 ± 0.17 | 
CNC(=O)Nc1ccc(-c2cn3c(c2CN(C)C)c(=O)n(-c2cccc(OC)c2F)c(=O)n3Cc2c(F)cccc2F)cc1 [Example 14, 1-(4-(1-(2,6-difluorobenzyl)-5-((dimethylamino)methyl)-3-(2-fluoro-3-methoxyphenyl)-2,4-dioxo-1,2,3,4-tetrahydropyrrolo[2,1-f][1,2,4]triazin-6-yl)phenyl)-3-methylurea] | 0.11 |  |  |  |  |  |  | 
CNC(=O)Nc1ccc(-c2cn3c(c2CN(C)C)c(=O)n(-c2ccc(OC)nn2)c(=O)n3Cc2c(F)cccc2F)cc1 [Example 16, 1-(4-(1-(2,6-difluorobenzyl)-5-((dimethylamino)methyl)-3-(6-methoxypyridazin-3-yl)-2,4-dioxo-1,2,3,4-tetrahydropyrrolo[2,1-f][1,2,4]triazin-6-yl)phenyl)-3-methylurea] | 2.32 |  |  |  |  |  |  | 
CCNC(=O)Nc1ccc(-n2nc3c(c2CN(C)C)c(=O)n(-c2cccc(OC)c2F)c(=O)n3Cc2c(F)cccc2F)cc1 [Example 3, 1-(4-(7-(2,6-difluorobenzyl)-3-((dimethylamino)methyl)-5-(2-fluoro-3-methoxyphenyl)-4,6-dioxo-4,5,6,7-tetrahydro-2H-pyrazolo[3,4-d]pyrimidin-2-yl)phenyl)-3-ethylurea] | 0.9 | 96.2 ± 42.2 | 1070 ± 472 | 181 ± 79 | 6.17 ± 0.79 | 237 ± 158 | 6.42 ± 1.39 | 
CNC(=O)Nc1ccc(-n2nc3c(c2CN(C)C)c(=O)n(-c2ccc(OC)nn2)c(=O)n3Cc2c(F)cccc2C(F)(F)F)cc1 [Example 12, 1-(4-(3-((dimethylamino)methyl)-7-(2-fluoro-6-(trifluoromethyl)benzyl)-5-(6-methoxypyridazin-3-yl)-4,6-dioxo-4,5,6,7-tetrahydro-2H-pyrazolo[3,4-d]pyrimidin-2-yl)phenyl)-3-methylurea] | 2.24 |  |  |  |  |  |  | 
CNC(=O)Nc1ccc(-n2nc3c(c2CN(C)C)c(=O)n(-c2cccc(OC)c2F)c(=O)n3Cc2c(F)cccc2C(F)(F)F)cc1 [Example 8, 1-(4-(3-((dimethylamino)methyl)-5-(2-fluoro-3-methoxyphenyl)-7-(2-fluoro-6-(trifluoromethyl)benzyl)-4,6-dioxo-4,5,6,7-tetrahydro-2H-pyrazolo[3,4-d]pyrimidin-2-yl)phenyl)-3-methylurea] | 0.6 |  |  |  |  |  |  | 0.27
CONC(=O)Nc1ccc(-n2nc3c(c2CN(C)C)c(=O)n(-c2cccc(OC)c2F)c(=O)n3Cc2c(F)cccc2F)cc1 [Example 2, 1-(4-(7-(2,6-difluorobenzyl)-3-((dimethylamino)methyl)-5-(2-fluoro-3-methoxyphenyl)-4,6-dioxo-4,5,6,7-tetrahydro-2H-pyrazolo[3,4-d]pyrimidin-2-yl)phenyl)-3-methoxyurea] | 1.46 | 14.4 ± 10.5 | 1550 ± 650 | 121 ± 44 | 1.24 ± 0.54 | 746 ± 493 | 2.02 ± 0.67 | 
CNC(=O)Nc1ccc(-n2nc3c(c2CN(C)C)c(=O)n(-c2ccc(OC)nn2)c(=O)n3Cc2c(F)cccc2F)cc1 [Example 9, 1-(4-(7-(2,6-difluorobenzyl)-3-((dimethylamino)methyl)-5-(6-methoxypyridazin-3-yl)-4,6-dioxo-4,5,6,7-tetrahydro-2H-pyrazolo[3,4-d]pyrimidin-2-yl)phenyl)-3-methylurea] | 0.42 | 72 ± 25 | 628 ± 369 | 332 ± 159 | 2.91 ± 1.64 | 146 ± 59 | 4.67 ± 2.22 | 0.24
CCNC(=O)Nc1ccc(-c2cn3c(c2CN(C)C)c(=O)n(-c2cccc(OC)c2F)c(=O)n3Cc2c(F)cccc2F)cc1 [Example 13, 1-(4-(1-(2,6-difluorobenzyl)-5-((dimethylamino)methyl)-3-(2-fluoro-3-methoxyphenyl)-2,4-dioxo-1,2,3,4-tetrahydropyrrolo[2,1-f][1,2,4]triazin-6-yl)phenyl)-3-ethylurea] | 0.92 | 231 ± 234 | 389 ± 298 | 915 ± 1050 | 3.31 ± 0.57 | 103 ± 64 | 4.48 ± 0.7 | 
CNC(=O)Nc1ccc(-n2nc3c(c2CN(C)C)c(=O)n(-c2cccc(OC)c2F)c(=O)n3Cc2c(F)cccc2F)cc1 [Example 5, 1-(4-(7-(2,6-difluorobenzyl)-3-((dimethylamino)methyl)-5-(2-fluoro-3-methoxyphenyl)-4,6-dioxo-4,5,6,7-tetrahydro-2H-pyrazolo[3,4-d]pyrimidin-2-yl)phenyl)-3-methylurea] | 0.66 | 46.8 ± 39.2 | 1290 ± 1030 | 247 ± 198 | 2.32 ± 0.65 | 690 ± 660 | 2.47 ± 0.75 | 

— patent US10344034B2, “Pyrazolopyrimidone or Pyrrolotriazone derivatives, method of preparing same, and pharmaceutical applications thereof” (Shanghai Hengrui Pharmaceutical Co., Ltd., priority 2013, dated 2019)
